According to US8299085B2, “Quinazoline derivatives” (Novartis AG, priority 2004, dated 2012):
pIC50: −log10 of the molar value.

Tests used:
Wistar Kyoto rats [1] = experiment: Test 1: NMDA-antagonist induced locomotion; assay type: in vivo, rat; details: 10 mg/kg s.c.
Description: Male Wistar Kyoto rats (Iffa Crédo, Lyon, France) weighing between 250 and 310 g are used. In principle 4 treatment groups are formed: 1) the compound (doses 1, 3 or 10 mg/kg) followed by the competitive NMDA receptor antagonist (S)-2-amino-3-(2′-chloro-5-phosphonomethyl-biphenyl-3-yl)-propionic acid, hereinafter SDZ 220-581 (10 mg/kg), 2) solvent-pretreatment followed by SDZ 220-581 (10 mg/kg), 3) solvent followed by solvent, 4) the compound (1, 3, 10 mg/kg) followed by solvent. Rats are randomly allocated to these pretreatment groups (n=10/dose group). Drugs are administered subcutaneous (s.c.), 15 min prior to SDZ 220-581. Immediately after the animals received SDZ 220-581, they are placed into the activity monitor for a period of 60 min. Locomotor activity is analysed over the initial 30 minutes.
Locomotion is recorded with a videotracking system (VideoMot2, TSE Technical and Scientific Equipment GmbH, Bad Hombourg, Germany), using a closed circuit digital videocamera (WV-BP.330/GE, Panasonic, Osaka, Japan). The video-signal from the camera is digitized and used for data analysis. […] The camera is placed such, that four animals (one per arena) can be recorded simultaneously.

AMPA receptor = experiment: [3H] CNQX binding test (AMPA-receptor binding), brain membranes; details: 5 nM [3H]-CNQX, 4° C., 40 min
Description: CNQX binding test (Honoré et al. Biochem. Pharmacol. 1989, 38: 3207-3212). This test is performed as follows:
Brain membranes: The animals are decapitated, the brain removed and homogenized in 10 volumes of ice-cold 10% sucrose with a glass/Teflon homogenizer at positions 5 for 30 sec. The membranes are centrifuged at 1000×g for 10 min, and the supernatant centrifuged at 20,000×g for 15 min. The resulting pellet is resuspended in 10 volumes of cold water with a tissue homogenizer (Brinkman Polytron) at position 5 for 15 sec and the suspension centrifuged at 8000×g for 10 min. The supernatant including the buffy layer is centrifuged at 40,000×g for 20 min, the pellet resuspended in 5 volumes of water and the suspension frozen (20-30 min in dry ice/methanol) and thawed (water-bath at 37° C.) twice. The suspension is centrifuged at 40,000×g for 20 min, the pellet resuspended in 50 mM HEPES/KOH, pH 7.5, and centrifuged at 40,000×g for 10 min. […]
Radioligand binding assay: It is performed using 96-well microtiterplates in a volume of 0.3 ml of 50 mM HEPES/KOH, pH 7.2, 100 μg membrane protein, 5 nM [^3H]-CNQX (NEN) and the compound to be tested. […] Two hundred μl of the scintillation fluid Microscint 20 (Packard) are added and the radioactivity is counted in a Packard Topcount scintillation counter at an efficiency of 40-45%. […]

[2] = target: T1, rat GluR3-(flop) AMPA receptor (Rattus norvegicus, UniProt P19492); experiment: Functional test for AMPA-receptor activity, two electrode voltage clamp in Xenopus laevis oocytes; assay type: cell-based; details: Xenopus oocytes expressing rGluR3-(flop); read-out: IC50-value, antagonist at the rGluR3 AMPA receptor
T1 construct: expressed in transfected cells; host or cells: Xenopus laevis oocytes (cRNA injection)
T1 sequence (P19492 23-888): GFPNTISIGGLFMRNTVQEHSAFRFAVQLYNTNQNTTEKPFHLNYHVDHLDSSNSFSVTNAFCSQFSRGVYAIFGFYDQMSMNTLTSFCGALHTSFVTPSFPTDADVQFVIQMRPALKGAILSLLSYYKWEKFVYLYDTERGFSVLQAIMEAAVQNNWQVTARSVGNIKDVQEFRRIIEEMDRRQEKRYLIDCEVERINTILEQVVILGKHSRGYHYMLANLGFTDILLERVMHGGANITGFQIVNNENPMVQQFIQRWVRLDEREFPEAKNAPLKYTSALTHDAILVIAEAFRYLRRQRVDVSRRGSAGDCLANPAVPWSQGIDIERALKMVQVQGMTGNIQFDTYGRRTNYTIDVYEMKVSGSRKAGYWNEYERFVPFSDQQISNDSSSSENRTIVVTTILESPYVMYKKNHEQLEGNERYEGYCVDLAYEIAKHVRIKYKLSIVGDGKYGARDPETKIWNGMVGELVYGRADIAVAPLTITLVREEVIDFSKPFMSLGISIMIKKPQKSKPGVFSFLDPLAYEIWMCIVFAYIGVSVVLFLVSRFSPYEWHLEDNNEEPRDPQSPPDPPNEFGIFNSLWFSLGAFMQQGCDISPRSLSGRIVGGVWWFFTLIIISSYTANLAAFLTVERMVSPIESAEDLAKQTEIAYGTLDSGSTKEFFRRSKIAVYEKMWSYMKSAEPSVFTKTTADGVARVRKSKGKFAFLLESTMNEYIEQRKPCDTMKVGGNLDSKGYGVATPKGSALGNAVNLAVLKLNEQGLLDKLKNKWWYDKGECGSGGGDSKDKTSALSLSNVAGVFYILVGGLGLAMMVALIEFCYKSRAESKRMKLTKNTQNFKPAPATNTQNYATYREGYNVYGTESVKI
Description: For the determination of functional agonism or antagonism at the AMPA-receptor, experiments can be performed on Xenopus oocytes as previously described in detail (Urwyler et al., Mol. Pharmacol. 2001, 60, 963-971). Briefly, two electrode voltage clamp recordings are performed from Xenopus laevis oocytes expressing GluR3 AMPA receptors. Plasmids for the rat GluR3-(flop) (Hollmann et al., Science 1991, 252, 851-853) are linearized and transcribed into capped cRNA using an in vitro RNA synthesis kit (Ambion, Tex.) with T7 Polymerase. Stock solutions are kept in 70% ethanol. Before use, cRNA is precipitated and resuspended in DEPC-treated water. Oocytes are injected with RNA coding the rat GluR3-(flop) AMPA receptor. For recordings, oocytes are placed in a perfusion chamber with continuous gravity flow of frog Ringer's solution. For recordings from oocytes expressing rGluR3-(flop) receptors frog, Ringer's solution containing Mg^2+ (81 mM NaCl; 2.5 mM KCl; 1 mM CaCl2; 1 mM MgCl2, 2.5 mM NaHCO3, 5 mM HEPES, pH 7.4) is used. Test compounds are washed in with gravity.

Wistar Kyoto rats [3] = experiment: Test 2: NMDA-channel blocker induced head swaying and circling; assay type: in vivo, rat; details: 10 mg/kg s.c., alone
Description: Adult male Wistar Kyoto rats (340-380 g; Iffa Credo, Lyon, France) are used. The animals are randomized to the following treatment groups (n=10 per group): the compound (dosed 0, 3 or 10 mg/kg) followed by phencyclidine (PCP; an NMDA channel blocker, dosed 0 or 10 mg/kg). Compound (at t=−15 min) and PCP (at t=0 min) are administered s.c. in a volume of 1 ml/kg. Video-recordings of the animals behaviour over the period 0-30 min following PCP are scored by an observer who is unaware about the animals pretreatment. Head-swaying (rocking the head repeatedly by at least 2 cm left and right) and circling (turning around by using the forepaws, whereas the hindpaws remain more or less on the original position) are scored as present (1) or absent (0), every five minutes for the duruation of 1 minute. The scores for individual animals is summed and group scores used for statistical analysis (t-test with Bonferroni correction).

[4] = test system: patients with diabetic neuropathy; experiment: Clinical study, chronic pain in patients with diabetic neuropathy; assay type: in vivo, human; details: 2400 mg/day, Maintenance and Follow-up Periods, statistically significant
Description: Patients are randomized to receive 2400 mg/day of the compound or placebo in a 1:1 ratio.
The study consists of a Pre-randomization Phase (1 week) and a Double-blind Phase (5 weeks). The double-blind Phase consists of three periods: a one week Titration Period, a three-week Maintenance Period and a one-week Follow-up Period.
During the 1-week Pre-randomization Phase, the eligibility of the patients is evaluated. Patients meeting all inclusion/exclusion criteria are randomized to either the compound or placebo in the Double-blind Phase. During the 1-week Titration Period, study medication is up-titrated from 800 mg/day (given b.i.d.) to 2400 mg/day (given b.i.d.). Patients who complete the 1-week Titration Period then enter the 3-week Maintenance Period. Patients who complete the 3-week Maintenance period or prematurely discontinue double-blind treatment then enter the 1-week Follow-up Period. Study medication is completely withdrawn on entry into the Follow-up Period. During the Double-blind Phase, serial efficacy and safety assessments are obtained. […]
The SF-MPQ total pain score at the end of the Maintenance Period is analyzed using an analysis of covariance model adjusting for the effect of treatment on post-treatment scores by using the baseline SF-MPQ total pain score as a covariate. Average weekly pain severity is analyzed using an analysis of covariance model with repeated measures using the treatment week and the mean pain severity rating during the Pre-randomization Phase as covariates. Usage of rescue medication during the Double-blind Phase is analyzed using the Cochran-Mantel-Haenszel test controlling for center. The mean pain severity rating during the Follow-up Period (rebound pain) is analyzed using an analysis of covariance model adjusting for the effect of treatment on the mean pain severity rating of the Follow-up Period with the mean pain severity rating during the Prerandomization Phase as a covariate.

N[C@@H](Cc1cc(CP(=O)(O)O)cc(-c2ccccc2Cl)c1)C(=O)O [SDZ 220-581, (S)-2-amino-3-(2′-chloro-5-phosphonomethyl-biphenyl-3-yl)-propionic acid]
distance walked during 30 min (Wistar Kyoto rats [1]): approximately 30 m

CN(C)c1cc2c(=O)n(NS(C)(=O)=O)c(=O)[nH]c2cc1[N+](=O)[O-] [Example 4, N-(6-Dimethylamino-7-nitro-2,4-dioxo-1,4-dihydro-2H-quinazolin-3-yl)-methanesulfonamide]
pIC50 (AMPA receptor): 6.54
pIC50 [2]: 5.64

c1ccc(C2(N3CCCCC3)CCCCC2)cc1 [PCP, phencyclidine]
head-swaying and circling (Wistar Kyoto rats [3]): induces weak head-swaying and circling

CS(=O)(=O)Nn1c(=O)[nH]c2cc(C(F)(F)F)c(N3CCCOCC3)cc2c1=O [Example 75, N-(6-[1,4]Oxazepan-4-yl-2,4-dioxo-7-trifluoromethyl-1,4-dihydro-2H-quinazolin-3-yl)-methanesulfonamide]
pain severity ratings relative to placebo [4]: decrease pain severity ratings relative to placebo
